The values below come from article PMC11089561, “Structural Investigations of Phthalazinone Derivatives as Allosteric Inhibitors of Human DNA Methyltransferase 3A” (ACS Medicinal Chemistry Letters, 2024).

Where only a bound is given, the exact number is not on record here.

Data set [1] concerns the target T1, DNMT3A_CD (catalytic domain of DNMT3A) (Homo sapiens, UniProt Q9Y6K1).
T1 construct: The catalytic domain of DNMT3A (residues 634 -912) were used for all experiments; made in house; host or cells: E. coli NiCo21 (DE3) (NEB)
The data set can be described thus: In vitro methylation assay, IC50 determination ([3H]-SAM, poly dI-dC). The format is biochemical. The conditions noted are these: 150 nM DNMT3A, 10 uM SAM, 10 uM poly dI-dC; 1 hour preincubation; Hill slope constrained to -2. On the procedure:
Expression and Purification of DNMT3A_CD
The catalytic domain of DNMT3A (residues 634 -912) were used for all experiments […]
DNMT3A_CD was expressed in NiCo21 (DE3) cells (NEB) using a codon optimized plasmid pET28a-hDNMT3A_CD (∆1-611). Cell cultures were grown in LB medium at 37 °C to an OD600 = 0.8. Cultures were cooled to 25 °C, then expression was induced by the addition of 1 mM IPTG (Gold Biotechnology). Cells were harvested by centrifugation after 5 hours and flash frozen in liquid nitrogen for storage at -80 °C.
Cells were resuspended in lysis buffer containing 50 mM K2HPO4/KH2PO4, 500 mM NaCl, 50 mM imidazole, 10% glycerol [v/v], 1 mM EDTA and 1 mM PMSF at pH 7.8.
Sonication was used for lysis and the supernatant was collected after centrifugation at 18,000 x g for 1 hour. Lysates were applied to an ÄKTA start FPLC system (GE healthcare) and loaded onto a 1 mL HisTrap Excel column (Cytiva). The column was washed with 50 mL of lysis […]
(§1) buffer and eluted with an identical buffer containing a higher imidazole concentration of 500 mM. Eluted protein was desalted with a 5 mL HiTrap Desalting column (Cytiva) and flash frozen in liquid nitrogen for storage at -80 °C. DNMT3A_CD concentration was determined using UV-vis with an extinction coefficient determined by protparam of 38,180 M-1 cm-1 to represent the monomeric state.
(§2) In Vitro Methylation Assays
(§3) Methylation assays were used to determine nanomolar amounts of methylated DNA product. Reactions were carried out in 50 mM K2HPO4/KH2PO4 at pH 7.8, 1 mM EDTA, 1 mM DTT, 0.2 mg/mL BSA, 20 mM NaCl, 150 nM DNMT3A_CD, 10 uM poly dI-dC (Sigma Aldrich), and 10 uM SAM (Sigma Aldrich) unless otherwise stated. The SAM cofactor was diluted with [3H]-SAM from PerkinElmer in 10 mM H2SO4. All inhibitors were dissolved and diluted in DMSO prior to addition to methylation reactions. Reactions with and without […]
All reactions containing inhibitors were preincubated with DNMT3A and inhibitor for 1 hour. Reactions were activated with poly dI-dC to a final volume of 20 uL, then incubated at 37 °C for 1 hour. Reaction aliquots were spotted on Hybond-N+ membranes (GE healthcare), then washed with 50 mM K2HPO4/KH2PO4 at pH 7.8 and ethanol. Membranes were dried and counted using a Hidex LS 300 scintillation counter. […]
Determination of IC50 Value
Percent activity of methylation assays was determined by comparing activities of assays with inhibitor to assays without inhibitor. Sigmoidal dose-response curves of percent activity vs compound concentration were fitted in Prism 10.
All assays were performed in triplicate, with additional repetitions added as necessary. […]
14). Reactions consisted of 150 nM DNMT3A, 10 uM SAM, and 10 uM poly dI -dC. The data

Data set [2] concerns the target T1, DNMT3A_CD (catalytic domain of DNMT3A). The data set can be described thus: Kinetics studies: methylation assays with varied SAM or poly dI-dC, fit to inhibition models. The format is biochemical. The conditions noted are these: for Best fit inhibition model: with DNA and SAM varied, R2 comparison and F-test, p-value < 0.0001; for α coefficient from mixed-type inhibition model, varied SAM: SAM varied 0.15-10 uM, poly dI-dC 10 uM; for α coefficient from mixed-type inhibition model, varied SAM / α coefficient from mixed-type inhibition model, varied DNA: α < 1 = preference for enzyme-substrate complex; for α coefficient from mixed-type inhibition model, varied DNA: poly dI-dC varied 0.15-10 uM, SAM 10 uM.
Source text: Using methylation assays with and without inhibitor and varied concentrations of DNA or SAM, we generated nonlinear Michaelis–Menten curves with corresponding double-reciprocal plots (Figure S2) and fit them to classical inhibition models. […] By analyzing double-reciprocal plots, this mechanistic model was confirmed because the changes in y-intercept and slope are inconsistent with competitive and uncompetitive forms of inhibition, respectively. […] Furthermore, the selected analogs also bind more tightly to the enzyme–substrate complex than to the free enzyme with both DNA and SAM (Table S2). This preference could be beneficial since DNMT3A bound to DNA is likely the dominant species in a cellular context. […]
as §1, §2, §3
All reactions containing inhibitors were preincubated with DNMT3A and inhibitor for 1 hour. Reactions were activated with poly dI-dC to a final volume of 20 uL, then incubated at 37 °C for 1 hour. Reaction aliquots were spotted on Hybond-N+ membranes (GE healthcare), then washed with 50 mM K2HPO4/KH2PO4 at pH 7.8 and ethanol. Membranes were dried and counted using a Hidex LS 300 scintillation counter.
In vitro methylation assays were performed as described above using two concentrations of inhibitor (0 uM and ~IC50) and varied concentrations of substrate SAM or poly dI-dC while the other substrate is held at a saturating concentration of 10 uM. For the variation of SAM, concentrations of 0.15, 0.25, 0.5, 1, 3 and 10 uM were used, while for the variation of poly dI-dC concentrations of 0.15, 0.25, 0.5, 1, 2.5, and 10 uM were used. Data was fitted globally with Prism 10 and best-fit inhibition models were determined using an F-test (p < 0.0001).
Lineweaver-Burke plots were generated and fit to a linear regression model. Data represent the mean and standard deviation of three independent reactions. […]
Figure S2: Double reciprocal plots for 1a (A, B), 3 (C, D), 4 (E, F), 5 (G, H), and 10 (I, J) with DNA and SAM. The data points represent the mean and standard deviation of three independent reactions. Reactions were done at initial velocity conditions using 150 nM DNMT3A, and varied concentrations of one substrate (0.15 –10 uM) while the other was saturated at 10 uM. Linear fits […]
competitive inhibition and uncompetitive inhibition respectively.
(1 picture or pasted object on this page, not shown here) […]
coefficient is a measure of the inhibitor’s preference for E and ES kinetic species.
Table S1: Determination of best fit inhibition models for 1a, 3, 4, 5, and 10 by R2 comparison […]
Most of the inhibitors have α < 1, where the inhibitor prefers the enzyme-substrate complex. […]

For data set [3], the system named is acute myeloid leukemia cell. The arrangement: method as in PMID 35866897. The conditions noted are these: cited from earlier work.
Data set [4] addresses DNMT3A. The arrangement: method as in PMID 33705897. Conditions: with SAM; read-out: Ki with S-adenosyl methionine (SAM, AdoMet); cited from earlier work.
On the set-up of data set [5]: method as in PMID 26935942. Conditions: versus FDA-approved inhibitors (azacytidine and decitabine); cited from earlier work.

T1 sequence (Q9Y6K1 634-912): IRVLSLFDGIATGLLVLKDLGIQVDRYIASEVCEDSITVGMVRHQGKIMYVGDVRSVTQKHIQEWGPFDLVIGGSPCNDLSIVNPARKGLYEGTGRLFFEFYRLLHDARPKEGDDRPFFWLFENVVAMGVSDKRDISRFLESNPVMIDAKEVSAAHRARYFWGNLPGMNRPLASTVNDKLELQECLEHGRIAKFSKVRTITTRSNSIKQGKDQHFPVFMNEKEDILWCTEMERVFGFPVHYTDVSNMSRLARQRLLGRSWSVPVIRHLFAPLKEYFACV

For `O=c1c2ccccc2c(-c2cccc(OCCCCOc3ccc(-c4nn[nH]n4)cc3)c2)nn1C1CCCCCC1` [Compound 13], it took 13 µM to reach half-maximal inhibition in data set [1] (IC50). The same measure, in the same setting: for `c1ccc(OCCCCOc2ccc(-c3nn[nH]n3)cc2)cc1` [Compound 14] the value was over 100 µM. On to `CN1N=C(c2cccc(OCCCCOc3ccc(-c4nn[nH]n4)cc3)c2)[C@H]2CC=CC[C@H]2C1=O` [Compound 5], for which, in data set [1], half-maximal inhibition (IC50) was put at 41 µM. The “Best fit inhibition model” value in data set [2] is “mixed-type inhibition model”. For the compound `COc1ccc(C2=NN(C3CCCCCC3)C(=O)C2(C)C)cc1OCCCCOc1ccc(-c2nnn[nH]2)cc1` [Compound 1b], in data set [3], the AML cell differentiation result was “induce acute myeloid leukemia cell differentiation”. The Ki (usually the dissociation constant of the complex between target and ligand, obtained from inhibition or displacement) in data set [4] is 3.7 to 7.06 µM. Further, in data set [5], the Cytotoxicity result is recorded as “significantly less cytotoxic than FDA-approved inhibitors”. With `O=C1[C@@H]2CC=CC[C@@H]2C(c2cccc(OCCCCOc3ccc(-c4nn[nH]n4)cc3)c2)=NN1Cc1ccc(F)c(F)c1` [Compound 7], the IC50 (usually the concentration needed to halve the response being measured) in data set [1] worked out at 18 µM. That is a double-digit micromolar value. Still for that read-out and setting: for `O=C1[C@@H]2CC=CC[C@@H]2C(c2cccc(OCCCCCOc3ccc(-c4nn[nH]n4)cc3)c2)=NN1C1CCCCCC1` [Compound 9] the value was 9 µM; for `O=C1[C@@H]2CC=CC[C@@H]2C(c2cccc(OC/C=C/COc3ccc(-c4nn[nH]n4)cc3)c2)=NN1C1CCCCCC1` [Compound 11], 13 µM.

Consider `O=C1[C@@H]2CC=CC[C@@H]2C(c2cccc(OCCCCOc3ccc(-c4nn[nH]n4)cc3)c2)=NN1C1CCCCCC1` [Compound 4], for which the IC50 in data set [1] stood at 10 µM. Further, the “Best fit inhibition model” value in data set [2] is given as “mixed-type inhibition model”. In data set [1], `COc1ccc(C2=NN(C3CCCCCC3)C(=O)[C@@H]3CC=CC[C@H]23)cc1OCCCCOc1ccc(C#N)cc1` [Compound 2] displayed an IC50 of over 300 µM. On the same count and under the same terms, then `O=C1[C@@H]2CC=CC[C@@H]2C(c2cccc(OCCCCOc3ccc(-c4nn[nH]n4)cc3)c2)=NN1Cc1ccccc1` [Compound 6], with 13 µM. The same measure, in the same setting: then `O=C1[C@@H]2CC=CC[C@@H]2C(c2cccc(OCCCOc3ccc(-c4nn[nH]n4)cc3)c2)=NN1C1CCCCCC1` [Compound 8], with 11 µM. In the case of `O=C1[C@@H]2CC=CC[C@@H]2C(c2cccc(OC/C=C\COc3ccc(-c4nn[nH]n4)cc3)c2)=NN1C1CCCCCC1` [Compound 10], in data set [1], half-maximal inhibition (IC50) required 11 µM. For the same compound, in data set [2], the “α coefficient from mixed-type inhibition model, varied SAM” value is over 1 and the “Best fit inhibition model” value is listed as “mixed-type inhibition model”. For `COc1ccc(C2=NN(C3CCCCCC3)C(=O)[C@@H]3CC=CC[C@H]23)cc1OCCCCOc1ccc(-c2nnn[nH]2)cc1` [Compound 1a], in data set [1], the IC50 amounted to 14 ± 2 µM. Besides, in data set [2], the “α coefficient from mixed-type inhibition model, varied SAM” value is under 1; the “α coefficient from mixed-type inhibition model, varied DNA” value is reported as under 1; the “Best fit inhibition model” value is “mixed-type inhibition model”. The AML cell differentiation entry in data set [3] is listed as “induce acute myeloid leukemia cell differentiation”. In data set [4], the Ki was 9.16 to 18.9 µM. The Cytotoxicity result in data set [5] is “significantly less cytotoxic than FDA-approved inhibitors”.

`O=C(COc1cccc(C2=NN(C3CCCCCC3)C(=O)[C@@H]3CC=CC[C@H]23)c1)Nc1ccc(-c2nn[nH]n2)cc1` [Compound 12]: in data set [1], 38 µM corresponded to half-maximal inhibition (IC50). That is a double-digit micromolar value.

The compound `COc1ccc(C2=NN(C3CCCCCC3)C(=O)[C@@H]3CC=CC[C@H]23)cc1OCCCCOc1ccc(C(=O)O)cc1` [Compound 3] had an IC50 in data set [1] of 23 µM. Moreover, in data set [2], the “α coefficient from mixed-type inhibition model, varied DNA” value is recorded as over 1 and the “Best fit inhibition model” value is given as “mixed-type inhibition model”.
